Assays:
Assay type in all cases: cell-based, Porcine
Settings in all cases: 24 hr, all three concentrations (1 μM; 5 μM; 20 μM)
SIRT1 = SIRT1 immunofluorescence in iPEC-1 cells treated with ursolic acid
Experimental: (§1) iPEC-1 cells were grown as a monolayer in DMEM with 10% fetal bovine serum (FBS) and the necessary supplements at 37° C. in a humidified incubator with 5% CO2. iPEC1 cells were seeded on 35 mm dishes. Experiments were initiated 48 hr after plating. Cells were treated with saline or with ursolic acid at three separate dosages (1 μM; 5 μM; or 20 μM) in the medium for 24 hr at 37° C. The cells were then washed with ice-cold PBS and fixed with 4% paraformaldehyde for 10 min at room temperature followed by permeabilization with 0.3% Triton X-100 for 10 min. After being washed with PBS three times, cells were incubated for 1 hr in PBS containing 10% normal goat serum blocking solution. The cells were subjected to immunofluorescence staining with the target specific antibodies (SIRT1, CLOCK and Bmal1) overnight at 4° C. The cells were then washed with cold PBS three times for 3 min each, and incubated with Alexa-labeled secondary antibodies (Invitrogen) at room temperature for 1 h. The cells were examined by fluorescence microscopy (a Nikon TE2000-S microscope, Nikon, Tokyo, Japan).

Bmal1 = Bmal1 immunofluorescence in iPEC-1 cells treated with ursolic acid
Experimental: as §1

CLOCK = CLOCK immunofluorescence in iPEC-1 cells treated with ursolic acid
Experimental: as §1

Which “intensity of immunofluorescence of SIRT1 compared with controls” value (SIRT1) does the source give for `C[C@H]1[C@H](C)CC[C@]2(C(=O)O)CC[C@]3(C)C(=CC[C@@H]4[C@@]5(C)CC[C@H](O)C(C)(C)[C@@H]5CC[C@]43C)[C@H]12` [ursolic acid] here?
The value was “significantly induced the intensity of immunofluorescence”.

What about the “intensity of immunofluorescence of Bmal1 compared with controls” value (Bmal1) of the same compound?
The value was “significantly induced the intensity of immunofluorescence”.

And the “intensity of immunofluorescence of CLOCK compared with controls” value (CLOCK)?
The value was “significantly induced the intensity of immunofluorescence”.
